Experimental data published in paper PMC6405172, “In vitro activity and mode of action of phenolic compounds on Leishmania donovani” (PLoS Neglected Tropical Diseases, 2019).
Where two headings read alike, the source gives them in different places.

What was measured:
Type in all cases: cell-based
[1] = tested on: Leishmania donovani promastigotes; experiment: Promastigote viability assay (MTT); details: for Selectivity Index (CC50/IC50), promastigotes: CC50 Raw 264.7 / IC50 promastigotes; for IC50: Leishmania donovani, read-out: Promastigotes IC50 (μM) ± SD
Description: The MTT assay was done as previously described. Briefly, promastigotes (2 x 10^5 cells) were cultured in freshly prepared M-199 medium supplemented with 10% heat inactivated fetal bovine serum in the presence or absence of varying concentrations of the phenolic compounds (0–50 μg/mL) for 72 hours at 25°C. Amphotericin B (0–50 μg/mL) and deferoxamine (0–50 μg/mL) were used as positive controls. After incubation, 5 mg/mL MTT solution was added to the promastigotes in each well and incubated for 3 hours at 25°C. In this assay, the yellow tetrazolium MTT dye was reduced to insoluble formazan crystals (purple color) in living cells using NADH as their reducing agent. Formazan crystals formed after incubation were solubilized with acidified isopropanol and incubated at 37°C for 30 min. The change in color from yellow to purple was read at an absorbance of 570 nm using Thermo Scientific Varioskan LUX. The cell viability and IC50 were determined from the concentration response curve generated using GraphPad Prism 6.0 Software.

[2] = Cytotoxicity of compounds on mammalian cells (MTT); details: mouse, Raw 264.7 cells, read-out: Macrophages CC50 (μM) ±SD
Description: Raw 264.7 cells were seeded into 96-well plates at (1 x 10^6 cells) in DMEM supplemented with 10% FBS, 100 μg/mL streptomycin, 100 u/mL penicillin-G, 2g/L NaHCO3 and incubated at 37°C for 24 hours in 5% CO2. The cells were treated with 0–50 μg/mL concentrations of the phenolic compounds for 48 hours at 37°C in 5% CO2. Deferoxamine and amphotericin B at 0–50 μg/mL concentrations were used as positive controls. Cell viability was estimated by measuring the mitochondria oxidative activity by MTT assay and absorbance was read at 570 nm using Thermo Scientific Varioskan LUX. Selectivity index (SI) was calculated as the ratio of the CC50 to IC50 values.

[3] = tested on: Leishmania donovani intracellular amastigotes; experiment: Intracellular amastigote assay in infected RAW 264.7 cells; details: for Selectivity Index (CC50/IC50), amastigotes: CC50 Raw 264.7 / IC50 intracellular amastigotes; for IC50: Leishmania donovani
Description: Amastigote cultures were prepared as reported by Jain and colleagues. Briefly, Raw 264.7 cells (4 x 10^7 cells) were seeded in 4 chamber slides and 1 x 10^7 cells in 96 well plates and incubated for 24 hours at 37°C in 5% CO2. The RAW 264.7 cells were infected with metacyclic promastigotes (1 x 10^8 cells) at an infection ratio of 1:10 macrophage: parasites and incubated for 24 hours at 37°C in 5% CO2. The overlying medium was removed, and the monolayer intracellular amastigotes were carefully washed four times with serum free M199 to remove free parasites. Freshly prepared M199 containing 10% FBS and the test compounds at concentrations ranging from 0–50 μg/mL were added to the infected cells and incubated for 48 hours at 37°C in 5% CO2. Triplicate incubations were performed in all the experiments. The chamber slides were washed thrice after incubation with M199 without FBS. The slides were then fixed in absolute methanol for 30 sec, rehydrated in 1x PBS for 5 min and stained with DAPI for 15 min. The slides were viewed by fluorescence microscopy and the number of infected macrophages counted using ImageJ Software to determine the infectivity index and IC50 values for amastigotes.
The infected RAW 264.7 cells in the 96 wells microtiter plates were also incubated for 48 hours and washed thrice as above. Sodium dodecyl sulfate (SDS) of concentration 0.05% was added to the wells for 30 sec for controlled lysis with M199 and 10% FBS. After the 30 sec, M199 with 10% FBS was added and the plates incubated at 25°C for 72 hours for the differentiation of the rescued amastigotes to promastigotes. Following incubation, the amastigotes were subjected to MTT assay and the absorbance obtained were used to estimate IC50 values of the compounds against the amastigote forms.

[4] = RAW264.7, intracellular amastigotes in RAW 264.7 cells, 48 hours, read-out: Amastigotes IC50 (μM) ± SD

Row | SMILES | Selectivity Index (CC50/IC50), promastigotes [1] | IC50 ([1]; MTT, 72 hours at 25°C) [µM] | CC50 at 48 h ([2]; Raw 264.7 macrophage cells) [µM] | Selectivity Index (CC50/IC50), amastigotes [3] | IC50 [3, 4] [µM] | CC50 at 48 h [2] [µM] | IC50 ([3]; RAW264.7, 48 h, intracellular amastigotes in RAW 264.7 cells, 48 hours, read-out: Amastigotes IC50 (μM) ± SD) [µM] | IC50 ([1]; 72 h) [µM] | IC50 ([3]; RAW264.7, 48 h, read-out: Amastigotes IC50 (μM) ± SD, intracellular amastigotes in RAW 264.7 cells, 48 hours) [µM]
1 | O=C(O)/C=C/c1ccc(O)c(O)c1 [Caffeic acid, caffeic acid] | 2.21 | 58.77 ± 0.01 | 129.92 ± 0.01 | 2.29 | 56.77 ± 0.01 |  |  |  | 
2 | O=C(/C=C/c1ccc(O)c(O)c1)O[C@@H]1C[C@](O)(C(=O)O)C[C@@H](O)[C@H]1O [Chlorogenic acid, chlorogenic acid] | 1.11 | 53.92 ± 0.03 | 59.9 ± 0.02 | 1.11 | 53.75 ± 0.4 |  |  |  | 
3 | COc1cc(/C=C/C(=O)O)ccc1O [Ferulic acid, ferulic acid] | 5.02 | 69 ± 0.01 |  | 6.30 |  | 346.7 ± 0.01 | 54.98 ± 0.01 |  | 
4 | O=C(O)c1cc(O)c(O)c(O)c1 [Gallic acid, gallic acid] | 0.17 | 198 ± 0.03 |  | 0.60 | 54.65 ± 0.25 | 33.76 ± 0.02 |  |  | 
5 | O=C(O)c1ccc(O)c(O)c1 [Protocatechuic acid, protocatechuic acid] | 7.05 |  |  |  |  | 511.9 ± 0.01 |  | 72.54 ± 0.01 | > 100
6 | O=C(O)c1ccccc1O [Salicylic acid, salicylic acid] | 0.83 | 75.4 ± 0.02 | 62.99 ± 0.01 | 0.69 | 90.65 ± 0.04 |  |  |  | 
7 | COc1cc(C(=O)O)ccc1O [Vanillic acid, vanillic acid] | 0.19 | 68.97 ± 0.02 |  | 0.19 | 69.97 ± 0.02 | 13.15 ± 0.01 |  |  | 
8 | O=C(O)C=Cc1ccc(O)cc1 [p-Coumaric acid] | 4.24 | 76.09 ± 0.01 |  |  | > 100 | 322.6 ± 0.15 |  |  | 
